Where “and” joins values, the source holds several entries; their conditions need not be identical. Identical values can stand only once.
Biological target: T1, hP2X7R (Homo sapiens, UniProt Q99572)
T1 sequence (Q99572 1-595): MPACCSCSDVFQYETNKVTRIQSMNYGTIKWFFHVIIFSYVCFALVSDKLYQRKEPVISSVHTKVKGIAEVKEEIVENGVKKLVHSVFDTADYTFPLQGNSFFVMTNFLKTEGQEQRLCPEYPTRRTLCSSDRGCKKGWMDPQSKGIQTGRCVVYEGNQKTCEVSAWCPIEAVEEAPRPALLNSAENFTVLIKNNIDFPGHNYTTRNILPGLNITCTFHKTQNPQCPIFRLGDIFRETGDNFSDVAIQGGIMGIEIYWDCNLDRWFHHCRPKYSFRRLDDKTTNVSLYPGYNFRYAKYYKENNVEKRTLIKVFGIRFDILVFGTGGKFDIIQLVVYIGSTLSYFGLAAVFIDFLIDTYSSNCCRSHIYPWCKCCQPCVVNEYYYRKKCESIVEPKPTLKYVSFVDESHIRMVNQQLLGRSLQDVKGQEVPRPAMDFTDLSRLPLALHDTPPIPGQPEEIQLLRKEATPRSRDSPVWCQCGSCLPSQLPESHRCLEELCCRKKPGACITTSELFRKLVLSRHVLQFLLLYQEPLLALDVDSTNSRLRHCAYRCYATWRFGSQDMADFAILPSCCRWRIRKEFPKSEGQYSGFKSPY
Test: Ethidium bromide accumulation in hP2X7R-expressing HEK293 cells
Type: cell-based
Design: expressed in transfected cells
Settings: for ΔΔGexp: relative to UB-ALT-P30, from experimental pIC50 values, T = 298 K; for MAX100 (% of maximum accumulation, replicates 1-3): single replicates
Experimental: Human P2X7R-expressing HEK293 cells were cultured in a humidified atmosphere of 5% CO2 at 37 °C in Dulbecco’s Modification of Eagle’s Medium (DMEM; Corning) supplemented with 10% (v/v) fetal bovine serum (Corning) and 1% (v/v) antibiotic–antimycotic (Gibco)[75]. To perform the assay, the DMEM was removed, and the HEK293 cells were washed with 3 mL of 1X DPBS (Dulbecco’s Phosphate-Buffered Saline; Corning). After the removal of DPBS solution, the cells were detached from the dish with 1 mL of trypsin/EDTA (Gibco), and the cells were collected by centrifugation. The cells (density of 2.25 × 10^7) were re-suspended in 4-(2-hydroxyethyl)-1-piperazineethanesulfonic acid (HEPES)-buffered salt solution consisting of 140 mM potassium chloride, 1 mM ethylene diamine tetraacetic acid (EDTA), 5 mM glucose, 20 mM HEPES, and 0.1 mM ethidium bromide (pH 7.4). The vehicles or appropriate range of concentrations of compounds (10 μL, pre-diluted in 10% (v/v) DMSO in DW from 10 mM stock) were added to each well of 96-well black plate (Corning), and 80 μL of the cell suspension was subsequently added to each well. BzATP (10 μL, pre-diluted in DW from 10 mM stock) was then added, and the final assay volume was maintained at 100 μL. After the incubation in 5% CO2 at 37 °C for 2 h, the ethidium dye uptake was detected by measuring the fluorescence (excitation wavelength of 530 nm and emission wavelength of 590 nm) of each well using a CHAMELEON™ Multi-Technology Plate Reader. The antagonistic activities of compounds are expressed as the percentages relative to the maximum accumulation of ethidium bromide observed in the control group with the stimulation of the hP2X7R by an agonist, BzATP. The IC50 values of compounds as antagonists were calculated using nonlinear regression analysis using OriginPro 9.1 software.

[1] = BzATP 6 μM, antagonist concentration 1 (unit not given)
[2] = BzATP 6 μM, antagonist concentration 10 (unit not given)
[3] = BzATP 6 μM, antagonist concentration 50 (unit not given)
[4] = BzATP 6 μM, antagonist concentration 100 (unit not given)
[5] = BzATP 6 μM, antagonist concentration 500 (unit not given)
[6] = BzATP 6 μM, antagonist concentration 1000 (unit not given)
[7] = BzATP 7 μM, antagonist concentration 0.1 (unit not given)
[8] = BzATP 7 μM, antagonist concentration 0.5 (unit not given)
[9] = BzATP 7 μM, antagonist concentration 1 (unit not given)
[10] = BzATP 7 μM, antagonist concentration 5 (unit not given)
[11] = BzATP 7 μM, antagonist concentration 10 (unit not given)
[12] = BzATP 7 μM, antagonist concentration 100 (unit not given)

## O=C(NNc1ccccc1Cl)C12CC3CC(CC(C3)C1)C2 [UB-ALT-P30, reference compound]
[1]
  mean % of maximum accumulation: 94.223%
  MAX100 (% of maximum accumulation, replicates 1-3): 87.3374 and 88.4652 and 106.867
[2]
  mean % of maximum accumulation: 86.3844%
  MAX100 (% of maximum accumulation, replicates 1-3): 79.5317 and 91.4204 and 88.2012
[3]
  mean % of maximum accumulation: 53.8482%
  MAX100 (% of maximum accumulation, replicates 1-3): 46.9211 and 58.6273 and 55.9961
[4]
  mean % of maximum accumulation: 26.7232%
  MAX100 (% of maximum accumulation, replicates 1-3): 22.0295 and 25.5481 and 32.5919
[5]
  mean % of maximum accumulation: 9.424%
  MAX100 (% of maximum accumulation, replicates 1-3): 9.107 and 5.6244 and 13.5397
[6]
  mean % of maximum accumulation: 9.144%
  MAX100 (% of maximum accumulation, replicates 1-3): 6.418 and 4.862 and 16.1509
hP2X7R, ethidium bromide accumulation, mean ± SD, triplicate
  IC50: 47 ± 4 nM
  ΔΔGexp: 0 kcal/mol

## CC12CC3CC1(C)C1(C)CC3(C(=O)NNc3ccccc3Cl)CC21C [UB-MBX-46]
[7]
  mean % of maximum accumulation: 86.0633%
  MAX100 (% of maximum accumulation, replicates 1-3): 84.5638 and 89.1729 and 84.4531
[8]
  mean % of maximum accumulation: 74.1428%
  MAX100 (% of maximum accumulation, replicates 1-3): 75.8389 and 73.3083 and 73.2812
[9]
  mean % of maximum accumulation: 59.2287%
  MAX100 (% of maximum accumulation, replicates 1-3): 53.915 and 63.4586 and 60.3125
[10]
  mean % of maximum accumulation: 27.1109%
  MAX100 (% of maximum accumulation, replicates 1-3): 28.9336 and 34.5865 and 17.8125
[11]
  mean % of maximum accumulation: 10.5059%
  MAX100 (% of maximum accumulation, replicates 1-3): 10.962 and 9.774 and 10.7812
[12]
  mean % of maximum accumulation: 11.5505%
  MAX100 (% of maximum accumulation, replicates 1-3): 12.4534 and 11.7293 and 10.4688
  ΔΔGexp: -2.37 ± 0.32 kcal/mol
